# Test results as given in PMC4646457 (PLoS ONE, 2015).
# Where two headings read alike, the source gives them in different places.
# Columns and labels:
# [1] = set-up: method as in study EGF10002; settings: ref study EGF10002, cited from earlier work
# [2] = system: EGFR; settings: read-out: IC50 for EGFR; stated as target binding affinity, ref not given; cited from earlier work
# [3] = system: human CYP450 enzymes; settings: also CYP3A5, lesser extent CYP2C19; ref EGF10027 protocol, CIB RM2000/00481/06; cited from earlier work
# [4] = target: HER2 (Homo sapiens, UniProt P04626); assay: Quantitative IHC of phosphorylated HER2 in patient tumor (EGF10027); format: in vivo; settings: for p-HER2 post-treatment OD: plasma […]
# [5] = set-up: method as in RM2005/00018/00 (Study EGF20008); settings: single agent, heavily pre-treated population; ref RM2005/00018/00 (Study EGF20008); cited from earlier work
# [6] = cited from earlier work
# [7] = set-up: method as in study EGF10003; settings: ref study EGF10003, cited from earlier work
# [8] = rats; ref EGF10027 protocol, CIB RM2000/00481/06; cited from earlier work
# [9] = cited from earlier work; for frequency of achieving ≥75% inhibition of one of four key biomarkers (p-EGFR, p-ErbB2, p-ERK1/2, p-AKT): tumor
# [10] = set-up: method as in EGF10027 protocol, CIB RM2000/00481/06; settings: Ames, CHO and human lymphocyte chromosome aberration, in vivo rat bone marrow; ref EGF10027 protocol, CIB RM2000/00481/06; cited from earlier work
# [11] = system: isolated canine cardiac Purkinje fibers; set-up: method as in EGF10027 protocol, CIB RM2000/00481/06; settings: ref EGF10027 protocol, CIB RM2000/00481/06; cited from earlier work
# [12] = set-up: method as in EGF10027 protocol, CIB RM2000/00481/06; settings: pregnant rats or rabbits, period of major organogenesis; ref EGF10027 protocol, CIB RM2000/00481/06; cited from earlier work
# [13] = system: HER2+ human breast cancer cell lines; set-up: method as in PMID 12467226; settings: in vitro proliferative growth, cited from earlier work
# [14] = system: CYP3A; set-up: method as in EGF10027 protocol, CIB RM2000/00481/06; settings: pregnane X receptor-screening assay; ref EGF10027 protocol, CIB RM2000/00481/06; cited from earlier work
# [15] = system: HER2; settings: read-out: IC50 for HER2; stated as target binding affinity, ref not given; cited from earlier work
# [16] = ref EGF10027 protocol, CIB RM2000/00481/06, cited from earlier work
# [17] = set-up: method as in EGF10027 protocol, CIB RM2000/00481/06; settings: mice, rats and dogs; ref EGF10027 protocol, CIB RM2000/00481/06; cited from earlier work
# [18] = target: ErbB2 tyrosine kinase; settings: read-out: IC50, ErbB2 tyrosine kinase; in vitro kinase assay; ref EGF10027 protocol, CIB RM2000/00481/06; cited from earlier work
# [19] = system: HER3; assay: Quantitative IHC of phosphorylated HER3 in patient tumor (EGF10027); format: in vivo, human; settings: for p-HER3 post-treatment OD: plasma […]
# [20] = one patient with ABCB1 SNP C3435T, plasma 1 μM, tumor 9 μM
# [21] = cancer patients, once daily dosing up to 1800 mg, preliminary
# Chain of HER2 (Homo sapiens, UniProt P04626) (P04626 23-1255): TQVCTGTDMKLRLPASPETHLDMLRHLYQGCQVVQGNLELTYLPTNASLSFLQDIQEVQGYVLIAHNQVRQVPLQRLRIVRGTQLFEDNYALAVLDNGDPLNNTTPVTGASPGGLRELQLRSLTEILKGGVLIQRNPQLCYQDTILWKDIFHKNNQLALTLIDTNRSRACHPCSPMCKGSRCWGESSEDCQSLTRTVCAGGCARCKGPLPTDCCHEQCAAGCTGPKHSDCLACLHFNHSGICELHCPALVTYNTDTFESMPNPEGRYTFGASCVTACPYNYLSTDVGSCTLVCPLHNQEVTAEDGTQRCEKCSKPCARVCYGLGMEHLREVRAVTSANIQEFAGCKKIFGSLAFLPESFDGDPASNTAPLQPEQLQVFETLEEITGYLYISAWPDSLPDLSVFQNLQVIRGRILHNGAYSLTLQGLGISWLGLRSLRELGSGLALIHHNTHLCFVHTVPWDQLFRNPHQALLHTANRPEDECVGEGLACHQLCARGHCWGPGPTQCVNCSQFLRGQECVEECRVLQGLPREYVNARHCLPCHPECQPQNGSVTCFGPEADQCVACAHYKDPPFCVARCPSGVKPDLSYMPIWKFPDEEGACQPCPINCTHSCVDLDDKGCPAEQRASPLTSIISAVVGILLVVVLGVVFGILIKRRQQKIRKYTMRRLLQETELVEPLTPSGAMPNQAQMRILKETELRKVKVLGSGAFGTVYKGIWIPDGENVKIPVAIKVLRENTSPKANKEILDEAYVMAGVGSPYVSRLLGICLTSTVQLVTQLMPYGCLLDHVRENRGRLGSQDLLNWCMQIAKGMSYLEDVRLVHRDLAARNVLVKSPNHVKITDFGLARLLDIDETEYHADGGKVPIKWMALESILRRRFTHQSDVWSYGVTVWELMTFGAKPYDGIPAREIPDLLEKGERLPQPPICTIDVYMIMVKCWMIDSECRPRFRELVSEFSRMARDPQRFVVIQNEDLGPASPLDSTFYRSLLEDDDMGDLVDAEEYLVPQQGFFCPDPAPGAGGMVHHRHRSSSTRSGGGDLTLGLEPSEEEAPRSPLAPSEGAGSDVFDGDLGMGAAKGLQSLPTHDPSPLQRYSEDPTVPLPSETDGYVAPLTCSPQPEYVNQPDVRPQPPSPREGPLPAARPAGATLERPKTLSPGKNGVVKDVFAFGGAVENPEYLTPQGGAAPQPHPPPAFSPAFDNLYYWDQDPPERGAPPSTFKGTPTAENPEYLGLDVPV
smiles,measurement,setting,value
CS(=O)(=O)CCNCc1ccc(-c2ccc3ncnc(Nc4ccc(OCc5cccc(F)c5)c(Cl)c4)c3c2)o1 [lapatinib],accumulation with once daily dosing,[1]; 100 and 175 mg doses,~50%
same,half-life,[1]; Day 1,7 h
same,metabolizing CYP enzymes,[3],metabolized predominantl y by CYP3A4
same,"p-HER2 post-treatment OD, mean",[4]; mean of listed subjects,9.00 OD
same,HER2 phosphorylation in tumor,[4]; [20],complete inhibition
same,p-HER2 post-treatment OD,"[4]; subject 5, tumor 25.60 µM",10 OD
same,p-HER2 post-treatment OD,"[4]; subject 1405, tumor 12.76 µM",17 OD
same,clinical benefit response rate,[5],6%
same,Cmin,"[6]; previous clinical studies, 1500 mg QD",1350 nM
same,plasma half-life,"[6]; ref EGF10027 protocol, original text",~14 h
same,subjects with dose-limiting toxicity (diarrhea),[7]; 900 mg BID,2 of 6
same,incidence of diarrhea,[7]; [21],18-25%
same,incidence of nausea,[7]; [21],< 10%
same,incidence of rash,[7]; [21],< 10%
same,"incidence of gastrointestinal intolerance (nausea, vomiting and diarrhea)",[7]; patients receiving twice daily dosing (900 or 750 mg),~34%
same,"AUC with 900 mg BID compared with 1800 mg once daily, higher",[7]; patients,~ two-fol d
same,single intravenous dose with no deaths,[8],≤ 21 mg/kg
same,single oral dose with no deaths,[8],"up to 2,000 mg/kg"
same,incidence of rash,"[9]; cancer patients, preliminary, ref study EGF10004",12%
same,maximum tolerated dose (not reached at maximum dose given),"[9]; patients, ref preliminary analysis of EGF10004",> 1800 mg/day
same,"frequency of achieving ≥75% inhibition of one of four key biomarkers (p-EGFR, p-ErbB2, p-ERK1/2, p-AKT)","[9]; 650 mg once daily, ref study EGF10004, listed as GW572016",50%
same,"frequency of achieving ≥75% inhibition of one of four key biomarkers (p-EGFR, p-ErbB2, p-ERK1/2, p-AKT)","[9]; 900 mg once daily, ref study EGF10004, listed as GW572016",44%
same,"frequency of achieving ≥75% inhibition of one of four key biomarkers (p-EGFR, p-ErbB2, p-ERK1/2, p-AKT)","[9]; 1200 mg once daily, ref study EGF10004",75%
same,"frequency of achieving ≥75% inhibition of one of four key biomarkers (p-EGFR, p-ErbB2, p-ERK1/2, p-AKT)","[9]; 1600 mg once daily, ref study EGF10004, listed as GW572016",83%
same,mutagenicity and clastogenicity,[10],non-mutagenic
same,fetal malformations,[12],No fetal malform ations
same,IC90 in multiple HER2+ human breast cancer cell lines,[13],~0.5 µg/mL
same,IC90,[13]; read-out: IC90 in multiple HER2+ human breast cancer cell lines,~900 nM
same,CYP3A induction,[14],no abil it y to induce CYP3A
same,IC50,[15],25 nM
same,NOAEL,[16]; female rats,20 mg/kg/day
same,NOAEL,[16]; male rats,60 mg/kg/day
same,generally well tolerated dose,"[16]; rats, up to 13 weeks",≤ 60 mg/kg/day
same,urinary excretion of the oral dose,[17],< 1%
same,IC50,[18],9 nM
same,"p-HER3 post-treatment OD, mean",[19]; mean of listed subjects,10.40 OD
same,HER3 phosphorylation in tumor,[19]; [20],complete inhibition
same,p-HER3 post-treatment OD,"[19]; subject 5, tumor 25.60 µM",16 OD
same,p-HER3 post-treatment OD,"[19]; subject 124, tumor 56.02 µM",7 OD
same,p-HER3 post-treatment OD,"[19]; subject 801, tumor 1.98 µM",14 OD
same,p-HER3 post-treatment OD,"[19]; subject 803, tumor 2.08 µM",5 OD
same,p-HER3 post-treatment OD,"[19]; subject 804, tumor 7.90 µM",11 OD
same,p-HER3 post-treatment OD,"[19]; subject 1401, tumor 1.02 µM",3 OD
same,p-HER3 post-treatment OD,"[19]; subject 1405, tumor 12.76 µM",18 OD
